{
  "source": "patent US20050008656A1",
  "about": "“Compositions and methods for an orally administered inhibitor of biting insects” (priority 2003, published 2005)",
  "origin": "cited, not measured here",
  "key": {"[1]": {"details": "in vivo"}, "[2]": {"details": "in vivo", "remark": "listed apart in the source"}, "biting insects": {"system": "biting insects", "details": "ingested"}},
  "data": [
    {"compound": "CCN(CC)C(=O)c1cccc(C)c1", "note": "[DEET, N, N-diethyl-3-methylbenzamide, reference compound]", "values": [
      {"measurement": "toxicity (in words)", "setting": "[1]", "value": "toxicity, including encephalopathy and seizures"}
    ]},
    {"compound": "Cyanocobalamin [B12]", "values": [
      {"measurement": "time needed to be absorbed", "setting": "[2]", "value": "~3", "unit": "h"}
    ]},
    {"compound": "CC1CCC(C(C)(C)O)C(O)C1", "note": "(stereo not shown) [PMD, p-menthane-3,8-diol, reference compound]", "values": [
      {"measurement": "eye irritation", "setting": "[1]", "value": "significant eye irritation"}
    ]},
    {"compound": "Cc1ncc(C[n+]2csc(CCO)c2C)c(N)n1", "note": "[thiamine]", "values": [
      {"measurement": "effectiveness at inhibiting insects from biting", "setting": "biting insects", "value": "not effective"}
    ]},
    {"compound": "O=C(O)CCCC[C@@H]1SC[C@@H]2NC(=O)N[C@@H]21", "note": "[Biotin]", "values": [
      {"measurement": "toxicity (in words)", "setting": "[1]", "value": "No toxic levels are known"}
    ]},
    {"compound": "O[C@H]1[C@H](O)[C@@H](O)[C@H](O)[C@@H](O)[C@H]1O", "note": "[inositol]", "values": [
      {"measurement": "toxicity (in words)", "setting": "[1]", "value": "No toxic effects known"}
    ]},
    {"compound": "C/C=C/C=C/C(=O)O", "note": "[Sorbic acid]", "values": [
      {"measurement": "toxicity (in words)", "setting": "[1]", "value": "non-toxic even when taken in large quantities"}
    ]},
    {"compound": "Cc1ncc(CO)c(CO)c1O", "note": "[Vitamin B6, Pyridoxine]", "values": [
      {"measurement": "dosage above which neurological damage may be caused", "setting": "[1]", "value": "> 2,000 mg per day"}
    ]},
    {"compound": "C[N+](C)(C)CCO", "note": "[choline]", "values": [
      {"measurement": "maximum level set for safety", "setting": "[1]", "value": 3.5, "unit": "g/day"}
    ]},
    {"compound": "O=C(O)c1cccnc1", "note": "[Nicotinic acid]", "values": [
      {"measurement": "dose above which flushing by dilating the blood vessels occurs", "setting": "[1]", "value": "> 200", "unit": "mg"}
    ]}
  ]
}
